{"source": "paper PMC8596132", "about": "(Advanced Science, 2021)", "key": {"TRPM8 channel": {"molecular_target": "T1, TRPM8 channel (Mus musculus, UniProt Q8R4D5)", "T1 construct": "expressed in transfected cells; host or cells: HEK293 / HEK293T cells", "T1 sequence (Q8R4D5 whole entry)": "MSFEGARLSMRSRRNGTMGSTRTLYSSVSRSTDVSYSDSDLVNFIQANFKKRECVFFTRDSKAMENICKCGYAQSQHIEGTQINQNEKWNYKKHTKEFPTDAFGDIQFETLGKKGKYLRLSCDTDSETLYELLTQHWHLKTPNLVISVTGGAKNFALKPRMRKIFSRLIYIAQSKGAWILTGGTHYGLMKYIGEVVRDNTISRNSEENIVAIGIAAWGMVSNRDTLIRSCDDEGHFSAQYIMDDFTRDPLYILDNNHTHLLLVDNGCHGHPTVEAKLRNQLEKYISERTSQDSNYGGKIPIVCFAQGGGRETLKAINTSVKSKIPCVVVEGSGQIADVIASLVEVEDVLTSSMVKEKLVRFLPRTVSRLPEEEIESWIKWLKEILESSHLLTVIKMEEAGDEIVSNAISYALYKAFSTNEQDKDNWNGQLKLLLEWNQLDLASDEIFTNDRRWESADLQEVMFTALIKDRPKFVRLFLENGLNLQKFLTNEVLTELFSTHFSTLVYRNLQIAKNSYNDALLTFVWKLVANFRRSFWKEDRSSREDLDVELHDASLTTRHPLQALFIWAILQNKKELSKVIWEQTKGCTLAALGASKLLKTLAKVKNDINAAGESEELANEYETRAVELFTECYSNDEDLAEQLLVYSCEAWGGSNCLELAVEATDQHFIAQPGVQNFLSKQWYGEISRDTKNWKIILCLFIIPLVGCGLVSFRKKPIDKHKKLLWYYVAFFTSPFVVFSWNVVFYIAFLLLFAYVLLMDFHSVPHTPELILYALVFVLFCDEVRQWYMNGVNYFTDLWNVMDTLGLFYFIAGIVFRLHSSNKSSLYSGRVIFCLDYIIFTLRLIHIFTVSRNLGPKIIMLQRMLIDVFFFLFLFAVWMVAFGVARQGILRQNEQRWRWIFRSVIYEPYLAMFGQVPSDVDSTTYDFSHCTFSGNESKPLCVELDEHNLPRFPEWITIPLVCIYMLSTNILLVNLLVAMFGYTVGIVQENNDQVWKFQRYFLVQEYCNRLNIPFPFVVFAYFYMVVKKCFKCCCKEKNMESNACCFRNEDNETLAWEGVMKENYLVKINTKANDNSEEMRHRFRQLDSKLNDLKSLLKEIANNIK", "assay": "single-channel patch-clamp recording, menthol activation (outside-out)", "type": "cell-based", "details": "+80 mV", "protocol": "(§1) Electrophysiological experiments were performed between 24 and 48 h after transfections. Specifically, single‐channel recordings were conducted about […] after transfection.\n(§2) Patch‐clamp recordings were performed with a HEKA EPC10 amplifier with PatchMaster software (HEKA) in the whole‐cell, inside‐out, or outside‐out configuration. For whole cell recordings, patch pipettes were prepared from borosilicate glass and fire‐polished to a resistance of ≈3–6 MΩ. Serial resistance was compensated by 60%. Whole‐cell recordings were performed at ±80 mV. For single‐channel recordings, patch pipettes were fire‐polished to a higher resistance of 6–8 MΩ. Current signal was sampled at 10 kHz and filtered at 2.9 kHz. Membrane potential was clamped at +80 mV. All recordings were performed at room temperature (22 °C) with the maximum variation of 1 °C.\nThere were different solutions prepared for different ion channels current recordings. For TRPM8, TRPV1, TRPV2, TRPV3, and TRPA1 channels recording, the standard bath and pipette solution contained: 130 × 10^−3 M NaCl, 0.2 × 10^−3 M EDTA, and 3 × 10^−3 M HEPES, pH = 7.2. For TRPM4 channels recording, solutions with 130 × 10^−3 M NaCl and 3 × 10^−3 M HEPES, pH = 7.2 were used as standard bath solution. The pipette solutions required 500 × 10^−6 M CaCl2 mixing with 130 × 10^−3 M NaCl and 3 × 10^−3 M HEPES, pH = 7.2. TRPM2 currents were recorded with the help of standard bath solution of 147 × 10^−3 M NaCl, 2 × 10^−3 M KCl, 1 × 10^−3 M MgCl2, 10 × 10^−3 M HEPES, 2 × 10^−3 M CaCl2, 13 × 10^−3 M glucose, pH = 7.4 and the pipette solutions of 147 × 10^−3 M NaCl, 1 × 10^−3 M MgCl2, 10 × 10^−3 M HEPES, pH = 7.4. For NaV1.5, NaV1.7 channels, the standard bath solution was 140 × 10^−3 M NaCl, 3 × 10^−3 M KCl, 1 × 10^−3 M MgCl2, 1 × 10^−3 M CaCl2, 10 × 10^−3 M HEPES, pH = 7.2 and standard pipette solution was 140 × 10^−3 M CsF, 1 × 10^−3 M EGTA, 10× 10^−3 M NaCl, 10 × 10^−3 M MgCl2, 3 × 10^−3 M KCl, pH = 7.2. To evoke sodium channel currents, a holding potential of −80 mV was used with a testing pulse to +10 mV. […]"}, "mouse TRPM8 channel": {"molecular_target": "T2, mouse TRPM8 channel (Mus musculus, UniProt Q8R4D5)", "T2 construct": "expressed in transfected cells; host or cells: HEK293 / HEK293T cells", "T2 sequence (Q8R4D5 whole entry)": "as above", "assay": "whole-cell patch-clamp recording, menthol activation of TRPM8", "type": "cell-based", "protocol": "HEK293T cells were cultured in Dulbecco's modified Eagle's medium with 10% fetal bovine serum, penicillin (100 U mL^−1), and streptomycin ([…]) at 37 °C with 5% CO2. Transient transfection was conducted by using Lipofectamine 2000 (Invitrogen) and following the instruction manual.\nas §1\nPatch‐clamp recordings were performed with a HEKA EPC10 amplifier with PatchMaster software (HEKA) in the whole‐cell, inside‐out, or outside‐out configuration. For whole cell recordings, patch pipettes were prepared from borosilicate glass and fire‐polished to a resistance of ≈3–6 MΩ. Serial resistance was compensated by 60%. Whole‐cell recordings were performed at ±80 mV. For single‐channel recordings, patch pipettes were fire‐polished to a higher resistance of 6–8 MΩ. Current signal was sampled at 10 kHz and filtered at 2.9 kHz. […]\n(§3) There were different solutions prepared for different ion channels current recordings. […] TRPM2 currents were recorded with the help of standard bath solution of 147 × 10^−3 M NaCl, 2 × 10^−3 M KCl, 1 × 10^−3 M MgCl2, 10 × 10^−3 M HEPES, 2 × 10^−3 M CaCl2, 13 × 10^−3 M glucose, pH = 7.4 and the pipette solutions of 147 × 10^−3 M NaCl, 1 × 10^−3 M MgCl2, 10 × 10^−3 M HEPES, pH = 7.4. […]"}, "TRPV2": {"molecular_target": "T3, TRPV2 (Homo sapiens, UniProt Q9Y5S1)", "T3 construct": "expressed in transfected cells; host or cells: HEK293T", "T3 sequence (Q9Y5S1 1-764)": "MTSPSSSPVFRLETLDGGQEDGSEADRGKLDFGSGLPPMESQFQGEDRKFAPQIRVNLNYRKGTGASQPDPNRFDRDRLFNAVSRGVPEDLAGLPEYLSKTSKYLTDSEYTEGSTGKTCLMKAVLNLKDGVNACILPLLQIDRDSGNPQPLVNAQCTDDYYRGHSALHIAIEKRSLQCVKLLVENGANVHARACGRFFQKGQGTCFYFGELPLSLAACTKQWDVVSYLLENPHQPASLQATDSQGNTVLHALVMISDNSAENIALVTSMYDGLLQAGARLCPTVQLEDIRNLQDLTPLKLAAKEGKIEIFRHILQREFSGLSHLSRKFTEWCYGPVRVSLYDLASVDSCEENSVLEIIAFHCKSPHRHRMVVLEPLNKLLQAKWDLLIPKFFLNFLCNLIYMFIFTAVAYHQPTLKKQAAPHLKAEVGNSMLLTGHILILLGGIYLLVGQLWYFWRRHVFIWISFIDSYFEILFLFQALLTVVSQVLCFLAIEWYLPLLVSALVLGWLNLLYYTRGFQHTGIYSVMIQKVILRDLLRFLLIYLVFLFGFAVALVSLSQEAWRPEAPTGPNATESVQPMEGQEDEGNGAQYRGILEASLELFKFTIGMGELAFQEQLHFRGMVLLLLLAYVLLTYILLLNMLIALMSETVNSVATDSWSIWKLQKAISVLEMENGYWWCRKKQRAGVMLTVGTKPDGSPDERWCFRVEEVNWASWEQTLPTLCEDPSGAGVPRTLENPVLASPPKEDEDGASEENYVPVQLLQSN", "assay": "whole-cell recording, TRPV2 ligand activation", "type": "cell-based", "details": "read-out: IC50, inhibition of TRPV2", "protocol": "as §2\nas §3, with “recordings. For TRPM8, TRPV1, TRPV2, TRPV3, and TRPA1 channels recording, the standard bath and pipette solution contained: 130 × 10^−3 M NaCl, 0.2 × 10^−3 M EDTA, and 3 × 10^−3 M HEPES, pH = 7.2. For TRPM4 channels recording, solutions with 130 × 10^−3 M NaCl and 3 × 10^−3 M HEPES, pH = 7.2 were used as standard bath solution.” for “recordings.”"}, "[1]": {"assay": "body temperature measurement", "type": "in vivo", "details": "mice, i.v. 30 µg g^−1, rectal temperature up to 24 h, 5-9 animals", "protocol": "Adult CD1 mice (male, 6–8 weeks) were used for behavioral and primary cultures of DRG neurons studies. Mice were group‐housed under the 12 h light‐dark cycle with access to standard food and water ad libitum. All the animal procedures were approved by the Institutional Animal Care & Use Committee (IACUC) of Zhejiang University.\nA digital thermometer (FT3400) was used for body temperature measurement. Adult CD1 male mice were placed into an environmental room maintained at a constant temperature of 22 ± 1 °C. Body temperature was recorded using a rectal probe for mice (FT3400), which was inserted ≈2 cm from the anus. Body temperature was measured before treatment (baseline, BL) and at 5 min, 15 min, 0.5,1,2, 6, and 24 h following DeC‐1.2 (30 mg kg^−1, i.v.) administration."}}, "note": "Read-outs that look alike come from different tables or passages of the source. Bridge positions count the residues as written; N and C are the ends. Peptide text beside a SMILES is read from it."}
{"smiles": "CC1CCC(C(C)C)C(O)C1", "note": "(stereo not shown) [menthol]", "values": [{"measurement": "maximum open probability of TRPM8 activation by menthol", "setting": "TRPM8 channel; saturating menthol 1 × 10^−3 M alone", "value": "about 70%"}, {"measurement": "single-channel conductance of TRPM8 with menthol", "setting": "TRPM8 channel; saturating menthol 1 × 10^−3 M alone, mean ± SEM, n = 3, SEM", "value": "58.83 ± 1.85", "unit": "pS"}]}
{"smiles": "C[C@@H]1NC(=O)[C@H](CCCNC(=N)N)NC(=O)[C@H](CC(=O)O)NC(=O)[C@H](CCCNC(=N)N)NC(=O)[C@H](CCCNC(=N)N)NC(=O)[C@@H](N)CSSC[C@@H](C(=O)O)NC(=O)[C@H](CCCNC(=N)N)NC(=O)[C@H](CCC(N)=O)NC(=O)[C@H](CCCNC(=N)N)NC(=O)[C@H](Cc2ccc(O)cc2)NC(=O)[C@H](Cc2c[nH]cn2)NC(=O)[C@H](CCCNC(=N)N)NC1=O", "note": "[DeC‐1.2] (H-CRRDRARHYRQRC-OH; disulfide 1-13)", "values": [{"measurement": "open probability of TRPM8 with DeC-1.2 plus menthol", "setting": "TRPM8 channel; outside-out, menthol 1 × 10^−3 M + DeC-1.2 100 × 10^−6 M, mean ± SEM, n = 5, SEM", "value": "18.83 ± 1.92", "unit": "%"}, {"measurement": "IC50", "setting": "mouse TRPM8 channel; whole-cell patch clamp, TRPM8 expressed in HEK293 cells, −80 mV, 22 °C, n = 3, mean ± SEM, read-out: IC50, inhibition of menthol-induced TRPM8 activation", "value": "0.0045 ± 0.003", "unit": "µM"}, {"measurement": "IC50", "setting": "TRPV2", "value": "~10", "unit": "µM"}, {"measurement": "effect on body temperature", "setting": "[1]", "value": "did not significantly alter body temperature"}]}
{"smiles": "C[C@@H]1NC(=O)[C@H](C)NC(=O)[C@H](CCCNC(=N)N)NC(=O)[C@H](CO)NC(=O)[C@H](CC(N)=O)NC(=O)[C@H](CCCNC(=N)N)NC(=O)[C@@H](N)CSSC[C@@H](C(=O)O)NC(=O)[C@H](CCCCN)NC(=O)[C@H](CCC(N)=O)NC(=O)[C@H](CO)NC(=O)[C@H](CC(=O)O)NC(=O)[C@H](Cc2c[nH]cn2)NC1=O", "note": "[DeC‐1.1] (H-CRNSRAAHDSQKC-OH; disulfide 1-13)", "values": [{"measurement": "IC50", "setting": "mouse TRPM8 channel; SEM", "value": "133 ± 73.5", "unit": "µM"}]}
